In patent US20230106592A1, “METHOD FOR TREATING CANCER USING A COMBINATION OF DNA DAMAGING AGENTS AND ATR INHIBITORS” (Vertex Pharmaceuticals Incorporated, priority 2015, published 2023):

Assay: Phase I trial, combination with carboplatin: adverse events and DLTs
Assay type: in vivo, human
Experimental: Pts with advanced solid tumors enrolled in 2 sequential parts.
In part A, single pt cohorts received a compound of Formula A-2 once weekly in 21-day cycles with 3+3 dose escalation cohorts being implemented if grade 2 drug-related adverse events (AEs) occurred. […] If a DLT was reported, the cohort was expanded to include 3 additional pts with subsequent dose escalation being permitted if no further DLTs occurred. Paired pre- and post-treatment biopsies from selected pts in part B were assessed for pCHK1 levels by immunohistochemistry. Models based on preclinical and clinical data were used to simulate hematologic toxicities and pCHK1 inhibition for pts treated with a compound of Formula A-2 and CP.

[1] = A-2 90 mg/m2 + Carboplatin AUC 5 (n = 3)
[2] = A-2 90 mg/m^2 + Carboplatin AUC5 (N = 6)
[3] = A-2 120 mg/m2 + Carboplatin AUC 4 (n = 3)
[4] = A-2 120 mg/m2 + Carboplatin AUC 5 (n = 3)
[5] = A-2 120 mg/m^2 + Carboplatin AUC4 (N = 3)

CNCc1ccc(-c2cc(-c3nc(-c4ccc(S(=O)(=O)C(C)C)cc4)cnc3N)on2)cc1 [Compound A-2]
Treatment related adverse event: Alopecia, All Grades [1]: 2 (20.0) n (%) | Treatment related adverse event: Alopecia, Grade ≥ 3 [1]: 0 n (%) | Treatment related adverse event: Anemia, All Grades [1]: 4 (40.0) n (%) | Treatment related adverse event: Anemia, Grade ≥ 3 [1]: 0 n (%) | Treatment related adverse event: Any Event, All Grades [1]: 9 (90.0) n (%) | Treatment related adverse event: Any Event, Grade ≥ 3 [1]: 1 (10.0) n (%) | Treatment related adverse event: Fatigue, All Grades [1]: 4 (40.0) n (%) | Treatment related adverse event: Fatigue, Grade ≥ 3 [1]: 0 n (%) | Treatment related adverse event: Flushing, All Grades [1]: 1 (10.0) n (%) | Treatment related adverse event: Flushing, Grade ≥ 3 [1]: 0 n (%) | Treatment related adverse event: Headache, All Grades [1]: 0 n (%) | Treatment related adverse event: Headache, Grade ≥ 3 [1]: 0 n (%) | Treatment related adverse event: Hypersensitivity, All Grades [1]: 0 n (%) | Treatment related adverse event: Hypersensitivity, Grade ≥ 3 [1]: 0 n (%) | Treatment related adverse event: Infusion related reaction, All Grades [1]: 1 (10.0) n (%) | Treatment related adverse event: Infusion related reaction, Grade ≥ 3 [1]: 0 n (%) | Treatment related adverse event: Nausea, All Grades [1]: 3 (30.0) n (%) | Treatment related adverse event: Nausea, Grade ≥ 3 [1]: 0 n (%) | Treatment related adverse event: Neuropathy peripheral, All Grades [1]: 0 n (%) | Treatment related adverse event: Neuropathy peripheral, Grade ≥ 3 [1]: 0 n (%) | Treatment related adverse event: Neutropenia, All Grades [1]: 3 (30.0) n (%) | Treatment related adverse event: Neutropenia, Grade ≥ 3 [1]: 1 (10.0) n (%) | Treatment related adverse event: Pruritus, All Grades [1]: 1 (10.0) n (%) | Treatment related adverse event: Pruritus, Grade ≥ 3 [1]: 0 n (%) | Treatment related adverse event: Thrombocytopenia, All Grades [1]: 2 (20.0) n (%) | Treatment related adverse event: Thrombocytopenia, Grade ≥ 3 [1]: 0 n (%) | Treatment related adverse event: Vomiting, All Grades [1]: 0 n (%) | Treatment related adverse event: Vomiting, Grade ≥ 3 [1]: 0 n (%) | Treatment related adverse event: Alopecia, All [2]: 2 | Treatment related adverse event: Alopecia, ≥3 [2]: 0 | Treatment related adverse event: Anemia, All [2]: 3 | Treatment related adverse event: Anemia, ≥3 [2]: 0 | Treatment related adverse event: Fatigue, All [2]: 3 | Treatment related adverse event: Fatigue, ≥3 [2]: 0 | Treatment related adverse event: Flushing, All [2]: 0 | Treatment related adverse event: Flushing, ≥3 [2]: 0 | Treatment related adverse event: Headache, All [2]: 0 | Treatment related adverse event: Headache, ≥3 [2]: 0 | Treatment related adverse event: Hypertension, All [2]: 0 | Treatment related adverse event: Hypertension, ≥3 [2]: 0 | Treatment related adverse event: Nausea, All [2]: 1 | Treatment related adverse event: Nausea, ≥3 [2]: 0 | Treatment related adverse event: Neuropathy peripheral, All [2]: 0 | Treatment related adverse event: Neuropathy peripheral, ≥3 [2]: 0 | Treatment related adverse event: Neutropenia, All [2]: 2 | Treatment related adverse event: Neutropenia, ≥3 [2]: 1 | Treatment related adverse event: Respiratory tract infection, ≥3 [2]: 0 | Treatment related adverse event: Thrombocytopenia, All [2]: 2 | Treatment related adverse event: Thrombocytopenia, ≥3 [2]: 0 | Treatment related adverse event: Vomiting, All [2]: 0 | Treatment related adverse event: Vomiting, ≥3 [2]: 0 | Treatment related adverse event: Alopecia, All Grades [3]: 0 n (%) | Treatment related adverse event: Alopecia, Grade ≥ 3 [3]: 0 n (%) | Treatment related adverse event: Anemia, All Grades [3]: 1 (33.3) n (%) | Treatment related adverse event: Anemia, Grade ≥ 3 [3]: 0 n (%) | Treatment related adverse event: Any Event, Grade ≥ 3 [3]: 0 n (%) | Treatment related adverse event: Fatigue, All Grades [3]: 0 n (%) | Treatment related adverse event: Fatigue, Grade ≥ 3 [3]: 0 n (%) | Treatment related adverse event: Flushing, All Grades [3]: 1 (33.3) n (%) | Treatment related adverse event: Flushing, Grade ≥ 3 [3]: 0 n (%) | Treatment related adverse event: Headache, All Grades [3]: 0 n (%) | Treatment related adverse event: Headache, Grade ≥ 3 [3]: 0 n (%) | Treatment related adverse event: Hypersensitivity, All Grades [3]: 0 n (%) | Treatment related adverse event: Hypersensitivity, Grade ≥ 3 [3]: 0 n (%) | Treatment related adverse event: Infusion related reaction, All Grades [3]: 0 n (%) | Treatment related adverse event: Infusion related reaction, Grade ≥ 3 [3]: 0 n (%) | Treatment related adverse event: Nausea, All Grades [3]: 1 (33.3) n (%) | Treatment related adverse event: Nausea, Grade ≥ 3 [3]: 0 n (%) | Treatment related adverse event: Neuropathy peripheral, All Grades [3]: 0 n (%) | Treatment related adverse event: Neuropathy peripheral, Grade ≥ 3 [3]: 0 n (%) | Treatment related adverse event: Neutropenia, All Grades [3]: 0 n (%) | Treatment related adverse event: Neutropenia, Grade ≥ 3 [3]: 0 n (%) | Treatment related adverse event: Pruritus, All Grades [3]: 1 (33.3) n (%) | Treatment related adverse event: Pruritus, Grade ≥ 3 [3]: 0 n (%) | Treatment related adverse event: Thrombocytopenia, All Grades [3]: 1 (33.3) n (%) | Treatment related adverse event: Thrombocytopenia, Grade ≥ 3 [3]: 0 n (%) | Treatment related adverse event: Vomiting, All Grades [3]: 0 n (%) | Treatment related adverse event: Vomiting, Grade ≥ 3 [3]: 0 n (%) | Treatment related adverse event: Alopecia, All Grades [4]: 0 n (%) | Treatment related adverse event: Alopecia, Grade ≥ 3 [4]: 0 n (%) | Treatment related adverse event: Anemia, Grade ≥ 3 [4]: 0 n (%) | Treatment related adverse event: Any Event, All Grades [4]: 3 (100) n (%) | Treatment related adverse event: Fatigue, All Grades [4]: 1 (33.3) n (%) | Treatment related adverse event: Fatigue, Grade ≥ 3 [4]: 0 n (%) | Treatment related adverse event: Flushing, All Grades [4]: 0 n (%) | Treatment related adverse event: Flushing, Grade ≥ 3 [4]: 0 n (%) | Treatment related adverse event: Headache, All Grades [4]: 0 n (%) | Treatment related adverse event: Headache, Grade ≥ 3 [4]: 0 n (%) | Treatment related adverse event: Hypersensitivity, All Grades [4]: 1 (33.3) n (%) | Treatment related adverse event: Hypersensitivity, Grade ≥ 3 [4]: 1 (33.3) n (%) | Treatment related adverse event: Infusion related reaction, All Grades [4]: 1 (33.3) n (%) | Treatment related adverse event: Infusion related reaction, Grade ≥ 3 [4]: 0 n (%) | Treatment related adverse event: Nausea, Grade ≥ 3 [4]: 0 n (%) | Treatment related adverse event: Neuropathy peripheral, All Grades [4]: 0 n (%) | Treatment related adverse event: Neuropathy peripheral, Grade ≥ 3 [4]: 0 n (%) | Treatment related adverse event: Neutropenia, Grade ≥ 3 [4]: 1 (33.3) n (%) | Treatment related adverse event: Pruritus, All Grades [4]: 0 n (%) | Treatment related adverse event: Pruritus, Grade ≥ 3 [4]: 0 n (%) | Treatment related adverse event: Thrombocytopenia, All Grades [4]: 1 (33.3) n (%) | Treatment related adverse event: Thrombocytopenia, Grade ≥ 3 [4]: 0 n (%) | Treatment related adverse event: Vomiting, All Grades [4]: 0 n (%) | Treatment related adverse event: Vomiting, Grade ≥ 3 [4]: 0 n (%) | Treatment related adverse event: Alopecia, All [5]: 0 | Treatment related adverse event: Alopecia, ≥3 [5]: 0 | Treatment related adverse event: Anemia, All [5]: 1 | Treatment related adverse event: Anemia, ≥3 [5]: 0 | Treatment related adverse event: Fatigue, All [5]: 0 | Treatment related adverse event: Fatigue, ≥3 [5]: 0 | Treatment related adverse event: Flushing, All [5]: 1 | Treatment related adverse event: Flushing, ≥3 [5]: 0 | Treatment related adverse event: Headache, All [5]: 0 | Treatment related adverse event: Headache, ≥3 [5]: 0 | Treatment related adverse event: Hypertension, All [5]: 0 | Treatment related adverse event: Hypertension, ≥3 [5]: 0 | Treatment related adverse event: Nausea, All [5]: 1 | Treatment related adverse event: Nausea, ≥3 [5]: 0 | Treatment related adverse event: Neuropathy peripheral, All [5]: 0 | Treatment related adverse event: Neuropathy peripheral, ≥3 [5]: 0 | Treatment related adverse event: Neutropenia, All [5]: 0 | Treatment related adverse event: Neutropenia, ≥3 [5]: 0 | Treatment related adverse event: Respiratory tract infection, All [5]: 0 | Treatment related adverse event: Respiratory tract infection, ≥3 [5]: 0 | Treatment related adverse event: Thrombocytopenia, All [5]: 1 | Treatment related adverse event: Thrombocytopenia, ≥3 [5]: 0
